Measured values: publication PMC11239830, “Synthetic macrolides overcoming MLSBK-resistant pathogens” (Cell Discovery, 2024)
In brackets after ≈: the same amount, converted by molar mass. Like-named read-outs stand apart in the source and are kept apart here.

Tests used:
[1] = test system: 15B196 S. aureus ribosomes (A2058-methylated); assay: PURE in vitro translation inhibition assay; assay type: biochemical, Staphylococcus aureus; details: mean ± SD
Method: (§1) To validate the in vitro activity of our compounds, we employed an in vitro reconstituted E. coli Protein synthesis Using a Recombinant Elements (PURE) translation system, substituting E. coli ribosomes with the purified S. aureus ribosomes.
(§2) 5 μL of PURE reaction mix that translates a gene encoding the Nanoluc luciferase was set up in the presence or absence of tested compounds. Protein synthesis was initiated by incubating reactions at 37 °C for 60 min and stopped by placing on ice for 5 min. Luciferase activity was quantified using the Nano-Glo luciferase assay system and read on a GloMax 20/20 luminometer (Promega, USA). For each compound, the in vitro translation inhibition assay was performed in three biological triplicates over a range of concentrations from 0.001 μM to 1000 μM. A compound-free control was used to normalize luminescence measurements. The calculated luminescence percentages were plotted against compound concentrations on a semilog scale using GraphPad Prism.

[2] = test system: WT S. aureus ribosomes; assay: PURE in vitro translation inhibition assay; assay type: biochemical, Staphylococcus aureus; details: mean ± SD
Method: as §1, §2

[3] = CCK-8 assay for cytotoxicity; assay type: cell-based, human; details: human, HEK293T cells, HEK293T cell viability
Method: HepG2 cells (6 × 10^3) and HEK293T cells (4 × 10^3) were seeded into 96-well plates in 90 μL of DMEM medium containing 10% FBS per well. […] After overnight incubation, the test compound stock solution was diluted with DMEM medium containing 10% FBS to every target concentration, and 10 μL of each was added to each well. Three parallel experiments were set up for each compound. After incubation for 48 h, 10 μL of cell counting kit-8 (CCK-8) reagent was added to each well in sequence according to the manufacturer’s instructions. […] This experiment was independently repeated three times. The data were processed by GraphPad Prism.

[4] = test system: S. pneumoniae; assay: MIC, broth microdilution; assay type: cell-based, Streptococcus pneumoniae
Procedure, shortened: (§3)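 Read-out is the lowest concentration without observed growth after 16–20 h at 37 °C, using the CLSI broth microdilution method.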

[5] = test system: S. aureus; assay: MIC, broth microdilution; assay type: cell-based, Staphylococcus aureus
Procedure, shortened: as §3

[6] = test system: M. catarrhalis; assay: MIC, broth microdilution; assay type: cell-based, Moraxella catarrhalis; details: Moraxella catarrhalis; M. catarrhalis 13L332, Ery-S; read-out: MIC
Method: MICs were determined by the microdilution method according to the Clinical and Laboratory Standards Institute guidelines. Briefly, the stock solution of compounds and the reference antibiotics were diluted 2-fold in sterile 96-well plates with cation-adjusted Mueller-Hinton broth, and mixed with CAMHB-containing bacteria to give a final inoculum of 5 × 10^5 CFU/mL for broth microdilution experiments. […] Finally, the 96-well plates were incubated at 37 °C for 16–20 h to observe and record the results. The lowest concentration at which no bacterial growth could be observed visually was identified as the MICs of the compounds. The assay for MICs was replicated at least three times.

[7] = test system: S. pyogenes; assay: MIC, broth microdilution; assay type: cell-based, Streptococcus pyogenes
Procedure, shortened: as §3

[8] = Staphylococcus aureus, MRSA, MRSA (13)
[9] = Staphylococcus aureus, i-MLSB S. aureus (10)

Structure (SMILES): CC[C@H]1OC(=O)[C@H](C)[C@@H](OC(=O)NCCCOCCC#Cc2ccc3c(=O)c(C(=O)O)cn(C)c3c2)[C@H](C)[C@@H](O[C@@H]2O[C@H](C)C[C@H](N(C)C)[C@H]2O)[C@](C)(OC)C[C@@H](C)C(=O)[C@H](C)[C@H]2NC(=O)O[C@@]21C [MCX-190]
- IC50 [1]: 460 ± 230 nM
- IC50 [2]: 380 ± 100 nM
- CC50 at 48 h [3]: > 100 µM
- MIC ([4]; S. pneumoniae 07P390, c-ermB, listed as 95g): 0.06 µg/mL (≈ 0.0619 µM)
- MIC ([4]; S. pneumoniae 21C315, Clinical, c-ermB): 0.12 µg/mL (≈ 0.124 µM)
- MIC ([4]; S. pneumoniae 21D016, Clinical, c-ermB, mef): 0.5 µg/mL (≈ 0.516 µM)
- MIC ([4]; S. pneumoniae 21D020, Clinical, c-ermB, mef): 0.25 µg/mL (≈ 0.258 µM)
- MIC ([4]; S. pneumoniae 21M277, Clinical, c-ermB): 0.5 µg/mL (≈ 0.516 µM)
- MIC ([4]; S. pneumoniae 21Q352, Clinical, i-MLSB): 0.25 µg/mL (≈ 0.258 µM)
- MIC ([4]; S. pneumoniae 21Q353, Clinical, i-MLSB): 0.25 µg/mL (≈ 0.258 µM)
- MIC ([4]; S. pneumoniae 21W257, Clinical, c-ermB, mef): 0.5 µg/mL (≈ 0.516 µM)
- MIC ([4]; S. pneumoniae 21X435, Clinical): 0.016 µg/mL (≈ 0.0165 µM)
- MIC ([4]; S. pneumoniae ATCC49619): 0.016 µg/mL (≈ 0.0165 µM)
- MIC ([4]; S. pneumoniae ATCC49619, Ery-S, listed as 95g): 0.016 µg/mL (≈ 0.0165 µM)
- MIC ([4]; Streptococcus pneumoniae, ATCC49619, S. pneumoniae ATCC49619, Ery-S, read-out: MIC): 0.03 µg/mL (≈ 0.031 µM)
- MIC ([4]; Streptococcus pneumoniae, S. pneumoniae 05O173, c-ermB, mef, read-out: MIC): 2 µg/mL (≈ 2.06 µM)
- MIC ([4]; Streptococcus pneumoniae, S. pneumoniae 07P390, c-ermB, read-out: MIC): 0.12 µg/mL (≈ 0.124 µM)
- MIC ([4]; Streptococcus pneumoniae, S. pneumoniae PU09, mef, read-out: MIC): 0.06 µg/mL (≈ 0.0619 µM)
- MIC ([5]; S. aureus 15B196, Clinical, MRSA, c-ermB): 8 µg/mL (≈ 8.25 µM)
- MIC ([5]; S. aureus 21B200, Clinical, MRSA, c-ermB): 8 µg/mL (≈ 8.25 µM)
- MIC ([5]; S. aureus 21B207, Clinical, MRSA, c-ermB): 8 µg/mL (≈ 8.25 µM)
- MIC ([5]; S. aureus 21B212, Clinical, MSSA, i-ermC): 0.25 µg/mL (≈ 0.258 µM)
- MIC ([5]; S. aureus 21C173, Clinical, MSSA, i-ermC): 0.25 µg/mL (≈ 0.258 µM)
- MIC ([5]; S. aureus 21C174, Clinical, MSSA, c-ermB): 1 µg/mL (≈ 1.03 µM)
- MIC ([5]; S. aureus 21C187, Clinical, MRSA, i-ermA): 0.25 µg/mL (≈ 0.258 µM)
- MIC ([5]; S. aureus 21D112, Clinical, MSSA, c-ermB): 64 µg/mL (≈ 66 µM)
- MIC ([5]; S. aureus 21D115, Clinical, MSSA, i-ermC): 0.5 µg/mL (≈ 0.516 µM)
- MIC ([5]; S. aureus 21F198, Clinical, MRSA, c-ermB): 8 µg/mL (≈ 8.25 µM)
- MIC ([5]; S. aureus 21F206, Clinical, MSSA, c-ermB): 32 µg/mL (≈ 33 µM)
- MIC ([5]; S. aureus 21F207, Clinical, MRSA, i-ermC): 0.25 µg/mL (≈ 0.258 µM)
- MIC ([5]; S. aureus 21K194, Clinical, MSSA, i-ermC): 0.25 µg/mL (≈ 0.258 µM)
- MIC ([5]; S. aureus 21N354, Clinical, MRSA, c-ermB): 8 µg/mL (≈ 8.25 µM)
- MIC ([5]; S. aureus 21P191, Clinical, MSSA, c-ermC): 64 µg/mL (≈ 66 µM)
- MIC ([5]; S. aureus 21P404, Clinical, MSSA, i-ermC): 0.5 µg/mL (≈ 0.516 µM)
- MIC ([5]; S. aureus 21P407, Clinical, MRSA, c-ermB): 16 µg/mL (≈ 16.5 µM)
- MIC ([5]; S. aureus 21Q253, Clinical, MRSA, c-ermB): 4 µg/mL (≈ 4.13 µM)
- MIC ([5]; S. aureus 21R216, Clinical, MSSA, c-ermC): 64 µg/mL (≈ 66 µM)
- MIC ([5]; S. aureus 21T141, Clinical, MRSA, c-ermB): 4 µg/mL (≈ 4.13 µM)
- MIC ([5]; S. aureus 21X388, Clinical, i-ermA (MRSA in Table S9, MSSA in Fig. 2a)): 0.25 µg/mL (≈ 0.258 µM)
- MIC ([5]; S. aureus 21Y223, Clinical, MRSA, i-ermC): 0.5 µg/mL (≈ 0.516 µM)
- MIC ([5]; S. aureus ATCC29213): 0.25 µg/mL (≈ 0.258 µM)
- MIC ([5]; S. aureus PU32, Clinical, MRSA, i-ermA): 0.25 µg/mL (≈ 0.258 µM)
- MIC50 ([5]; Staphylococcus aureus, All S. aureus (24)): 1 µg/mL (≈ 1.03 µM)
- MIC50 [5, 8]: 4 µg/mL (≈ 4.13 µM)
- MIC90 [5, 8]: 8 µg/mL (≈ 8.25 µM)
- MIC50 ([5]; Staphylococcus aureus, MSSA, MSSA (10)): 0.5 µg/mL (≈ 0.516 µM)
- MIC ([5]; Staphylococcus aureus, S. aureus 15B196, c-ermB, read-out: MIC): 8 µg/mL (≈ 8.25 µM)
- MIC ([5]; Staphylococcus aureus, S. aureus PU32, i-ermA, read-out: MIC): 0.5 µg/mL (≈ 0.516 µM)
- MIC50 ([5]; Staphylococcus aureus, c-MLSB (constitutive) S. aureus (13)): 8 µg/mL (≈ 8.25 µM)
- MIC90 ([5]; Staphylococcus aureus, c-MLSB S. aureus (13)): 64 µg/mL (≈ 66 µM)
- MIC50 [5, 9]: 0.25 µg/mL (≈ 0.258 µM)
- MIC90 [5, 9]: 0.5 µg/mL (≈ 0.516 µM)
- MIC90 ([5]; Staphylococcus aureus, MSSA (10)): 64 µg/mL (≈ 66 µM)
- MIC [6]: 0.25 µg/mL (≈ 0.258 µM)
- MIC ([7]; S. pyogenes 01-968, Clinical, i-ermB): 0.03 µg/mL (≈ 0.031 µM)
- MIC ([7]; S. pyogenes 12-207, Clinical, mef): 0.5 µg/mL (≈ 0.516 µM)
- MIC ([7]; S. pyogenes 21C303, Clinical, c-ermB): 1 µg/mL (≈ 1.03 µM)
- MIC ([7]; S. pyogenes 21D184, Clinical, c-ermB): 1 µg/mL (≈ 1.03 µM)
- MIC ([7]; S. pyogenes 21D199, Clinical, c-ermB): 1 µg/mL (≈ 1.03 µM)
- MIC ([7]; S. pyogenes 21D200, Clinical, c-ermB): 0.5 µg/mL (≈ 0.516 µM)
- MIC ([7]; S. pyogenes 21K003, Clinical, mef): 1 µg/mL (≈ 1.03 µM)
- MIC ([7]; S. pyogenes 21M063, Clinical, c-ermB): 0.5 µg/mL (≈ 0.516 µM)
- MIC ([7]; S. pyogenes 21W186, Clinical, c-ermTR): 2 µg/mL (≈ 2.06 µM)
- MIC ([7]; Streptococcus pyogenes, S. pyogenes 12-206, c-ermTR, read-out: MIC): 0.12 µg/mL (≈ 0.124 µM)
